US20090220432A1, “Imaging agents and methods of using same for detecting multidrug resistance in cancer” (The Johns Hopkins University, priority 2005, published 2009)
“Also recorded” adds a separate entry of the source.

Columns and labels:
[1] = MRI relaxation times of water sample doped with GdDTPA; type: physicochemical; conditions: water sample doped with GdDTPA (0.05 M)
wild type KB tumor = conditions: cited from earlier work
[2] = T1 relaxivity of the agent at 9.4T; type: physicochemical
Excerpt: (§1) Materials. An HIV-1 Tat basic domain peptide-GdDOTA-carboxytetramethylrhodamine conjugates (Tat-GdDOTA-TAMRA, MW=2,989; as shown in FIG. 1) was custom-synthesized by Global Peptide Services, LLC (Fort Collins, Colo., U.S.A.). The specific T1 relaxivity (R,) of the agent at 9.4T is 4.9 (sec·mM)^−1. Monoclonal anti-P-gp [P-7965], streptavidin-QR conjugates [S-2899], and rhodamine 123 [R-8004] were purchased from Sigma Chemical Company (St. Louis, Mo., U.S.A.). Heptakis-(2,6-di-O-methyl)-β-cyclodextrin (DMCD) and cyclosporin A were purchased from Sigma-Aldrich Co. (St. Louis, Mo., U.S.A.). 4′,6-diamidino-2-phenylindole (DAPI) was obtained from Invitrogen Corp. (Carlsbad, Calif., U.S.A.). All other chemicals were obtained as reagent-grade products. Cell lines. Human breast adenocarcinoma (MCF-7^wt) and its multi-drug-resistant variant (MCF-7^adr) were maintained in Eagle's minimum essential medium (EMEM) with 1% penicillin, streptomycin, and 10% fetal bovine serum at 37° C. with 5% CO2. For MCF-7^adr cells, the growth medium was supplemented with 1.5 μM of adriamycin every medium change. Flow cytometry and fluorescent microscopy. Initially, to check P-gp expression and P-gp function of both cell lines, flow cytometry was implemented using a double staining technique as follows. […]

MCF-7^adr cells [3] = test: In vitro MRI T1 measurement of labeled cells; type: cell-based, Human
Protocol: (§2) In addition to the above experiments, collected cell pellets were incubated with 250 μl of Tat-GdDOTA-TAMRA (0.5 mg/ml in EMEM) for 20 min at 37° C. in the 5% CO2 incubator. After consecutive washing with PBS, cells were fixed in 3% paraformaldehyde for 15 min. As a control, cells were incubated with EMEM alone. To inhibit multidrug resistance mechanisms, 100 μM of DMCD was added to cells for 20 min prior to exposure to Tat-GdDOTA-TAMRA. In each step, cells were washed thoroughly. TAMRA fluorescence was detected in the orange-red region using band-selective emission filters centered around 600 nm.
(§3) Confocal microscopy. MCF-7^wt and MCF-7^adr cell lines were separately seeded in each 4-chamber glass slide (Nalge Nunc International Corp., Naperville, Ill., U.S.A.). Cells were incubated with 250 μl of Tat-GdDOTA-TAMRA (10 μg/ml) for 30 min in the 5% CO2 incubator. Cell nuclei were stained with DAPI ([…]) for 5 min. Cells were fixed with 3% paraformaldehyde for 15 min, and mounted under a coverslip following removal of plastic chambers. Confocal studies were performed with an inverted Zeiss LSM 410 confocal microscope (Carl Zeiss AG, Jena, Germany) using a 40× water immersion lens. In vitro MRI study. For the in vitro MRI study, the cell labeling procedure followed the protocol used for flow cytometry and microscopy studies, except that 20 µM of cyclosporin A was used, rather than DMCD as a multidrug resistance inhibitor. Cell suspensions were transferred into micro-centrifuge PCR tubes. MRI was carried out on a Bruker horizontal bore 9.4T spectrometer (Bruker Biospin GmbH, Rheinstetten, Germany) equipped with shielded gradients. The Paravision 3.0.2 program (Bruker Biospin GmbH) was used as acquisition software. […] Quantitative T1, maps of the samples were reconstructed using custom-written software in the IDL programming environment Research Systems Inc., Boulder, Colo., U.S.A.) that runs on Linux workstations. Final analysis was performed with the Image) program. (NIH, Bethesda, Md., U.S.A.).

MCF-7^wt cells [4] = test: In vitro MRI T1 measurement of labeled cells; type: cell-based, Human
Protocol: as §2, §3

MCF-7^adr cells [5] = test: Fluorescent microscopy of contrast agent uptake; type: cell-based, Human
Protocol: (§4) Cells were treated with 100 μg/ml DMCD prior to the exposure to Tat-GdDOTA-TAMRA. An Eclipse E400 microscope with a C-SHG1 super high pressure mercury lamp and a Coolpix 5000 digital camera (Nikon Inc., Tokyo, Japan) was used for fluorescent microscopy. Exposure time= 1/15 s, magnification=×40.
as §2

MCF-7^wt cells [6] = test: Fluorescent microscopy of contrast agent uptake; type: cell-based, Human; conditions: 0.5 mg/ml for 20 min
Protocol: as §4, §2

MCF-7^adr cells [7] = test: Flow cytometry (FACS) of contrast agent uptake; type: cell-based, Human
Protocol: FIG. 4 is a graph showing fluorescence detection of Tat-GdDOTA-TAMRA taken up by MCF-7^wt and MCF-7^adr cells after exposure to 0.5 mg/ml of same for 20 min. Dotted lines represent controls (line “a”: MCF-7^wt; line “b”: MCF-7^adr). Solid lines represent the cells treated with Tat-GdDOTA-TAMRA (line “c”: MCF-7^wt; line “d”: MCF-7^adr). […] A FACSCalibur (Becton Dickinson Biosciences, San Jose, Calif., U.S.A.) was used for flow cytometry. Acquisition and analysis were performed with Cell Quest software (Becton Dickinson Biosciences, San Jose, Calif., U.S.A.).
as §2

MCF-7^adr cells [8] = test: Confocal microscopy of contrast agent with DAPI nuclei staining; type: cell-based, Human; conditions: MDR cells, 10 μg/ml for 30 min
Protocol: (§5) Confocal microscopy. MCF-7^wt and MCF-7^adr cell lines were separately seeded in each 4-chamber glass slide (Nalge Nunc International Corp., Naperville, Ill., U.S.A.). Cells were incubated with 250 μl of Tat-GdDOTA-TAMRA (10 μg/ml) for 30 min in the 5% CO2 incubator. Cell nuclei were stained with DAPI ([…]) for 5 min. Cells were fixed with 3% paraformaldehyde for 15 min, and mounted under a coverslip following removal of plastic chambers. Confocal studies were performed with an inverted Zeiss LSM 410 confocal microscope (Carl Zeiss AG, Jena, Germany) using a 40× water immersion lens. In vitro MRI study. […] A saturation recovery snapshot-FLASH pulse sequence with an excitation pulse flip angle of 10 degrees, an echo time of 1.245 ms, and ten T1, saturation recovery delays (50, 100, 250, 500, 1,000, 1,500, 2,000, 3,000, 5,000, 12,000 ms) were used (Bhujwalla, Z. M., Artemov, D., Natarajan, K., Ackerstaff, E. & Solaiyappan, M., “Vasuclar Differences Detected by MRI for Metastatic Versus Nonmetastatic Breast and Prostate Cancer Xenografts”, Neoplasia 3, 143-153 (2002)). Quantitative T1, maps of the samples were reconstructed using custom-written software in the IDL programming environment Research Systems Inc., Boulder, Colo., U.S.A.) that runs on Linux workstations. […]

MCF-7^wt cells [9] = test: as above; type: cell-based, Human; conditions: wild type cells, 10 μg/ml for 30 min
Protocol: as §5

MCF-7^adr cells [10] = test: Flow cytometry of rhodamine 123 uptake (double staining with anti-P-gp); type: cell-based, Human; conditions: 30 min incubation
Excerpt: as §1

MCF-7^wt cells [11] = test: as above; type: cell-based, Human; conditions: 30 min incubation
Excerpt: as §1

[12] = MCF-7^adr, 0.5 mg/ml for 20 min

O=C([O-])CN(CCN(CC(=O)[O-])CC(=O)O)CCN(CC(=O)[O-])CC(=O)O.[Gd+3] [GdDTPA]
T1 relaxation time [1]: ~25 ms
T2 relaxation time [1]: ~25 ms

[C-]#[N+]CC(C)(C)OC.[C-]#[N+]CC(C)(C)OC.[C-]#[N+]CC(C)(C)OC.[C-]#[N+]CC(C)(C)OC.[C-]#[N+]CC(C)(C)OC.[C-]#[N+]CC(C)(C)OC.[Tc] [[^99mTc]SESTAMIBI]
retention in tumor (wild type KB tumor): retained

HIV-1 Tat basic domain peptide-GdDOTA-carboxytetramethylrhodamine conjugates [Tat-GdDOTA-TAMRA]
specific T1 relaxivity [2]: 4.9 s/mM
T1 (MCF-7^adr cells [3]; MCF-7^adr cells, 0.5 mg/ml agent for 20 min, 9.4T MRI, averaged T1): 2.05 ± 0.06 s
T1 reduction (ΔT1) (MCF-7^adr cells [3]; MCF-7^adr, treated vs control (Table 1 columns 6 and 7)): 0.3 ± 0.11 s
effect on T1 relaxation time (MCF-7^adr cells [3]; MDR cells treated with the conjugates alone): almost no decrease
T1 (MCF-7^wt cells [4]; MCF-7^wt cells, 0.5 mg/ml agent for 20 min, 9.4T MRI, averaged T1): 1.79 ± 0.02 s
T1 reduction (ΔT1) (MCF-7^wt cells [4]; MCF-7^wt, treated vs control (Table 1 columns 2 and 3)): 0.54 ± 0.11 s
effect on T1 relaxation time (MCF-7^wt cells [4]; wild type cells, 0.5 mg/ml): significantly decreased; also recorded: significantly reduced
fluorescence detected by microscopy (MCF-7^adr cells [5]; [12]): Lower or no fluorescence
uptake by fluorescence microscopy (MCF-7^wt cells [6]): Efficient uptake
agent delivered into cells by FACS, in comparison to MCF-7^wt (MCF-7^adr cells [7]; [12]): significantly lower
intracellular localization (confocal) (MCF-7^adr cells [8]): significantly less compound and less co-localization with nuclei
intracellular localization (confocal) (MCF-7^wt cells [9]): co-localized with nuclei

COC[C@H]1O[C@@H]2O[C@H]3[C@H](O)[C@@H](OC)[C@@H](O[C@H]4[C@H](O)[C@@H](OC)[C@@H](O[C@H]5[C@H](O)[C@@H](OC)[C@@H](O[C@H]6[C@H](O)[C@@H](OC)[C@@H](O[C@H]7[C@H](O)[C@@H](OC)[C@@H](O[C@H]8[C@H](O)[C@@H](OC)[C@@H](O[C@H]1[C@H](O)[C@H]2OC)O[C@@H]8COC)O[C@@H]7COC)O[C@@H]6COC)O[C@@H]5COC)O[C@@H]4COC)O[C@@H]3COC [DMCD, Heptakis-(2,6-di-O-methyl)-β-cyclodextrin, reference compound]
retention of Tat-GdDOTA-TAMRA conjugates after MDR inhibitor pre-treatment (microscopy) (MCF-7^adr cells [5]; MCF-7^adr pre-treated with inhibitor for 20 min): high retention
uptake of Tat-GdDOTA-TAMRA after MDR inhibitor pre-treatment (FACS) (MCF-7^adr cells [7]; MCF-7^adr pre-treated with inhibitor): recovered almost to the level typical for wild type cells

rhodamine 123
accumulation of rhodamine 123 (MCF-7^adr cells [10]): reduced accumulation
accumulation of rhodamine 123 (MCF-7^wt cells [11]): efficient accumulation
